# Patent US20250171457A1, “NITROGEN-CONTAINING HETEROCYCLIC COMPOUND HAVING NRF2 ACTIVATION EFFECT” (CHUGAI SEIYAKU KABUSHIKI KAISHA, priority 2022, published 2025)
# Where two headings read alike, the source gives them in different places.
# What was measured:
# [1] = system: Nrf2 transcriptional activity (pARE-Luc reporter) in HepG2 cells; test: In vitro Nrf2 transcriptional activity measurement by ARE-dependent reporter assay in HepG2 cell; type: cell-based, human
# In short: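 Luminescence readout (Bright-Glo) after 4 h, 37° C compound exposure of HepG2 cells carrying the ARE-luciferase vector pGL4.37. Each well converted to % response versus reference compound at 3.75 μM, and EC50 derived from dose-response curves.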
# [2] = system: Nqo1 (NAD(P)H quinone dehydrogenase 1) mRNA, Nrf2 downstream molecule; test: In vivo Nrf2 transcriptional activity measurement (Nqo1 mRNA in organs by qPCR); conditions: Mus musculus, C57BL/6J mice, 7 to 8 hours
# Procedure: Test Example 2: In Vivo Nrf2 Transcriptional Activity Measurement
# A test compound (solvent: 10 vol % dimethyl sulfoxide/50 mM glycine/32 mM sodium hydroxide/physiological saline) was administered to C57BL/6J mice (7-8 weeks old), which were euthanized by whole blood collection under isoflurane anesthesia 7 to 8 hours later, followed by the collection of various organs. mRNA was purified from the collected organs, and the mRNA expression level of Mapk1 as an internal control and the mRNA expression level of Nqo1 (NAD(P)H quinone dehydrogenase 1) as a typical Nrf2 downstream molecule were each measured by qPCR. The Nqo1 mRNA expression level was quantified by comparative CT, and an expression level ratio to a non-administration group was calculated. The administration of the test compound elevated the Nqo1 mRNA expression level in the various organs, confirming that the test compound also has a Nrf2-activating effect in vivo.
# [3] = Homo sapiens, HepG2 cells transfected with pARE-Luc, 4 hours at 37° C., luciferase activity of Example 1-54 or Example 17-23 at 3.75 μM defined as 100%
# [4] = ip, Intraperitoneal, kidney, read-out: Nqo1 mRNA expression level ratio to non-administration group, Kidney
# [5] = ip, Intraperitoneal, liver, read-out: Nqo1 mRNA expression level ratio to non-administration group, Liver
# [6] = ip, Intraperitoneal, lung, read-out: Nqo1 mRNA expression level ratio to non-administration group, Lung
# [7] = Oral, kidney, read-out: Nqo1 mRNA expression level ratio to non-administration group, Kidney
# [8] = Oral, liver, read-out: Nqo1 mRNA expression level ratio to non-administration group, Liver
# [9] = Oral, lung, read-out: Nqo1 mRNA expression level ratio to non-administration group, Lung
# [10] = HepG2 cells transfected with pARE-Luc, 4 hours at 37° C., luciferase activity of Example 1-54 or Example 17-23 at 3.75 μM defined as 100%, second printing of Table 20-1
Compound,"EC50 [1, 3] [nM]","fold induction at 10 mg/kg [2, 4]","fold induction at 10 mg/kg [2, 5]","fold induction at 10 mg/kg [2, 6]","fold induction at 30 mg/kg [2, 7]","fold induction at 30 mg/kg [2, 8]","fold induction at 30 mg/kg [2, 9]","fold induction at 15 mg/kg [2, 4]","fold induction at 15 mg/kg [2, 5]","fold induction at 15 mg/kg [2, 6]",further results
"COc1ccc(-c2cc(Cl)c(C(=O)N3COc4c(cccc4-c4cc(N5C6CCC5COC6)c(C(=O)O)cc4F)C3)c(Cl)c2)cn1 [Compound 2-2, 4-[3-[2,6-Dichloro-4-(6-methoxypyridin-3-yl)benzoyl]-2,4-dihydro-1,3-benzoxazin-8-yl]-5-fluoro-2-(3-oxa-8-azabicyclo[3.2.1]octan-8-yl)benzoic acid]",6.5,5.3,5.8,17,,,,,,,
"CCN1CCN(c2cc(Cl)c(C(=O)N3COc4c(cccc4-c4cc(N5C6CCC5COC6)c(C(=O)O)cc4F)C3)c(Cl)c2)CC1 [Compound 4-8, 4-[3-[2,6-Dichloro-4-(4-ethylpiperazin-1-yl)benzoyl]-2,4-dihydro-1,3-benzoxazin-8-yl]-5-fluoro-2-(3-oxa-8-azabicyclo[3.2.1]octan-8-yl)benzoic acid]",5.8,3.4,6.7,6.2,,,,,,,
"COCCOc1cc(Cl)c(C(=O)N2COc3c(cccc3-c3cc(N4C5CCC4COC5)c(C(=O)O)cc3F)C2)c(Cl)c1 [Compound 4-37, 4-[3-[2,6-Dichloro-4-(2-methoxyethoxy)benzoyl]-2,4-dihydro-1,3-benzoxazin-8-yl]-5-fluoro-2-(3-oxa-8-azabicyclo[3.2.1]octan-8-yl)benzoic acid]",6.3,4,8,5.4,,,,,,,
"COC1(OC)CN(c2cc(Cl)c(C(=O)N3COc4c(cccc4-c4cc(N5C6CCC5COC6)c(C(=O)O)cc4F)C3)c(Cl)c2)C1 [Compound 5-1, 4-[3-[2,6-Dichloro-4-(3,3-dimethoxyazetidin-1-yl)benzoyl]-2,4-dihydro-1,3-benzoxazin-8-yl]-5-fluoro-2-(3-oxa-8-azabicyclo[3.2.1]octan-8-yl)benzoic acid]",1.6,4.4,6.8,19,5.1,3.9,17,,,,
"O=C(O)c1cc(F)c(-c2cccc3c2OCN(C(=O)c2c(Cl)cc(N4CC5(C4)OCCCO5)cc2Cl)C3)cc1N1C2CCC1COC2 [Compound 5-2, 4-[3-[2,6-Dichloro-4-(5,9-dioxa-2-azaspiro[3.5]nonan-2-yl)benzoyl]-2,4-dihydro-1,3-benzoxazin-8-yl]-5-fluoro-2-(3-oxa-8-azabicyclo[3.2.1]octan-8-yl)benzoic acid]",1.3,4.3,6.9,20,4,6.9,20,,,,
"CC1COC2(CN(c3cc(Cl)c(C(=O)N4COc5c(cccc5-c5cc(N6C7CCC6COC7)c(C(=O)O)cc5F)C4)c(Cl)c3)C2)OC1 [Compound 5-7, 4-[3-[2,6-Dichloro-4-(7-methyl-5,9-dioxa-2-azaspiro[3.5]nonan-2-yl)benzoyl]-2,4-dihydro-1,3-benzoxazin-8-yl]-5-fluoro-2-(3-oxa-8-azabicyclo[3.2.1]octan-8-yl)benzoic acid]",1.7,4,5.4,18,,,,,,,
"CC1(C)COC2(CN(c3cc(Cl)c(C(=O)N4COc5c(cccc5-c5cc(N6C7CCC6COC7)c(C(=O)O)cc5F)C4)c(Cl)c3)C2)OC1 [Compound 5-9, 4-[3-[2,6-Dichloro-4-(7,7-dimethyl-5,9-dioxa-2-azaspiro[3.5]nonan-2-yl)benzoyl]-2,4-dihydro-1,3-benzoxazin-8-yl]-5-fluoro-2-(3-oxa-8-azabicyclo[3.2.1]octan-8-yl)benzoic acid]",,,,,5.2,6,19,3.7,6.7,15,"EC50 [1, 10]: 1.7 nM"
"O=C(O)c1cc(F)c(-c2cccc3c2OCN(C(=O)c2c(Cl)cc(N4CC5(C4)CC4(C5)OCCCO4)cc2Cl)C3)cc1N1C2CCC1COC2 [Compound 5-10, 4-[3-[2,6-Dichloro-4-(7,11-dioxa-2-azadispiro[3.1.56.14]dodecan-2-yl)benzoyl]-2,4-dihydro-1,3-benzoxazin-8-yl]-5-fluoro-2-(3-oxa-8-azabicyclo[3.2.1]octan-8-yl)benzoic acid]",3.2,,,,,,,5.1,5.4,17,
"COC1(OC)CN(c2cc(Cl)c(C(=O)N3COc4c(cccc4-c4ccc(C(=O)O)c(N5C6CCC5COC6)c4)C3)c(Cl)c2)C1 [Compound 5-16, 4-[3-[2,6-Dichloro-4-(3,3-dimethoxyazetidin-1-yl)benzoyl]-2,4-dihydro-1,3-benzoxazin-8-yl]-2-(3-oxa-8-azabicyclo[3.2.1]octan-8-yl)benzoic acid]",3.5,,,,,,,,,,"fold induction at 15 mg/kg [2, 7]: 3.6; fold induction at 15 mg/kg [2, 8]: 4.8; fold induction at 15 mg/kg [2, 9]: 14"
"O=C(O)c1cc(F)c(-c2cccc3c2OCN(C(=O)c2c(Cl)cc(N4CC5(CN(CC(F)F)C5)C4)cc2Cl)C3)cc1N1C2CCC1COC2 [Compound 7-2, 4-[3-[2,6-Dichloro-4-[6-(2,2-difluoroethyl)-2,6-diazaspiro[3.3]heptan-2-yl]benzoyl]-2,4-dihydro-1,3-benzoxazin-8-yl]-5-fluoro-2-(3-oxa-8-azabicyclo[3.2.1]octan-8-yl)benzoic acid]",4.6,,,,,,,4.3,6.2,11,
"COC1CC2(C1)CN(c1cc(Cl)c(C(=O)N3COc4c(cccc4-c4cc(N5C6CCC5COC6)c(C(=O)O)cc4F)C3)c(Cl)c1)C2 [Compound 13-16, 4-[3-[2,6-Dichloro-4-(6-methoxy-2-azaspiro[3.3]heptan-2-yl)benzoyl]-2,4-dihydro-1,3-benzoxazin-8-yl]-5-fluoro-2-(3-oxa-8-azabicyclo[3.2.1]octan-8-yl)benzoic acid]",,,,,4.5,6,22,4.8,6.6,20,"EC50 ([1]; HepG2 cells, pARE-Luc reporter, 4 hours, 100% = Example 1-54 or Example 17-23 at 3.75 μM): 0.95 nM"
"C[C@@H]1CN(c2ccc(C(=O)N3COc4c(cccc4-c4cc(N5C6CCC5COC6)c(C(=O)O)cc4F)C3)c(Cl)c2)[C@H](C)CN1C [Compound 13-21, 4-[3-[2-Chloro-4-[(2R,5R)-2,4,5-trimethylpiperazin-1-yl]benzoyl]-2,4-dihydro-1,3-benzoxazin-8-yl]-5-fluoro-2-(3-oxa-8-azabicyclo[3.2.1]octan-8-yl)benzoic acid]",,,,,2.9,4.9,3.6,,,,"EC50 [1, 10]: 2.3 nM"
"Cn1cc(-c2cc(Cl)c(C(=O)N3COc4c(cccc4-c4ccc(C(=O)O)c(N5CCOCC5)c4)C3)c(Cl)c2)cn1 [Compound 14-1, 4-[3-[2,6-Dichloro-4-(1-methylpyrazol-4-yl)benzoyl]-2,4-dihydro-1,3-benzoxazin-8-yl]-2-morpholin-4-ylbenzoic acid]",3.2,,,,5.7,4.2,17,,,,
